According to the supplement of paper PMC11451515:

Test system: SEM cells
Assay: cell viability relative to DMSO control; higher = less cytotoxic
Details: 48 h
Method in brief: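 Viability was expressed as a per-plate percentage of DMSO wells, with cell-free wells as background. Leukemia cells (NOMO1 or SEM at 500 cells/well, P12-Ichikawa at 1000 cells/well) were adapted for at least four passages in each medium and seeded in 1536-well plates (5 μl). Library compounds in DMSO were pin-dosed over an 11-point threefold series from 47 μM to 0.79 nM, and CellTiter-Glo One luminescence was read after 48 h at 37°C.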

[1] = HPLM + 10% dialyzed FBS, 0.000781 µM
[2] = HPLM + 10% dialyzed FBS, 0.00234 µM
[3] = HPLM + 10% dialyzed FBS, 0.00702 µM
[4] = HPLM + 10% dialyzed FBS, 0.0211 µM
[5] = HPLM + 10% dialyzed FBS, 0.0632 µM
[6] = HPLM + 10% dialyzed FBS, 0.19 µM
[7] = HPLM + 10% dialyzed FBS, 0.569 µM
[8] = HPLM + 10% dialyzed FBS, 1.71 µM
[9] = HPLM + 10% dialyzed FBS, 5.12 µM
[10] = HPLM + 10% dialyzed FBS, 15.4 µM
[11] = HPLM + 10% dialyzed FBS, 46.1 µM
[12] = RPMI 5 mM glucose + 10% FBS, 0.000781 µM
[13] = RPMI 5 mM glucose + 10% FBS, 0.00234 µM
[14] = RPMI 5 mM glucose + 10% FBS, 0.00702 µM
[15] = RPMI 5 mM glucose + 10% FBS, 0.0211 µM
[16] = RPMI 5 mM glucose + 10% FBS, 0.0632 µM
[17] = RPMI 5 mM glucose + 10% FBS, 0.19 µM
[18] = RPMI 5 mM glucose + 10% FBS, 0.569 µM
[19] = RPMI 5 mM glucose + 10% FBS, 1.71 µM
[20] = RPMI 5 mM glucose + 10% FBS, 5.12 µM
[21] = RPMI 5 mM glucose + 10% FBS, 15.4 µM
[22] = RPMI 5 mM glucose + 10% FBS, 46.1 µM
[23] = RPMI 5 mM glucose + 10% dialyzed FBS, 0.000781 µM
[24] = RPMI 5 mM glucose + 10% dialyzed FBS, 0.00234 µM
[25] = RPMI 5 mM glucose + 10% dialyzed FBS, 0.00702 µM
[26] = RPMI 5 mM glucose + 10% dialyzed FBS, 0.0211 µM
[27] = RPMI 5 mM glucose + 10% dialyzed FBS, 0.0632 µM
[28] = RPMI 5 mM glucose + 10% dialyzed FBS, 0.19 µM
[29] = RPMI 5 mM glucose + 10% dialyzed FBS, 0.569 µM
[30] = RPMI 5 mM glucose + 10% dialyzed FBS, 1.71 µM
[31] = RPMI 5 mM glucose + 10% dialyzed FBS, 5.12 µM
[32] = RPMI 5 mM glucose + 10% dialyzed FBS, 15.4 µM
[33] = RPMI 5 mM glucose + 10% dialyzed FBS, 46.1 µM

Compound | cell viability [1] | cell viability [2] | cell viability [3] | cell viability [4] | cell viability [5] | cell viability [6] | cell viability [7] | cell viability [8] | cell viability [9] | cell viability [10] | cell viability [11] | cell viability [12] | cell viability [13] | cell viability [14] | cell viability [15] | cell viability [16] | cell viability [17] | cell viability [18] | cell viability [19] | cell viability [20] | cell viability [21] | cell viability [22] | cell viability [23] | cell viability [24] | cell viability [25] | cell viability [26] | cell viability [27] | cell viability [28] | cell viability [29] | cell viability [30] | cell viability [31] | cell viability [32] | cell viability [33]
C=CC(=O)Nc1cccc(Nc2nc(NC3CCC(N(C)C)CC3)nc3c2ncn3C(C)C)c1 (stereo unspecified) | 107% | 106% | 112% | 112% | 105% | 95.9% | 81.9% | 40.6% | 9.48% | 4.66% | 4.5% | 116% | 107% | 101% | 113% | 117% | 106% | 86.9% | 70.1% | 10.8% | 4.33% | 3.98% | 105% | 111% | 109% | 110% | 115% | 107% | 82.5% | 40.9% | 9.22% | 3.79% | 3.4%
ClC1=CC\2=C(OC3=C(C=CC=C3)\N=C2N4CCNCC4)C=C1 | 110% | 90.9% | 114% | 108% | 117% | 116% | 112% | 105% | 119% | 95.2% | 89% | 94.5% | 49.6% | 95% | 90.4% | 94.1% | 93.3% | 103% | 99.7% | 104% | 89.3% | 86.8% | 104% | 80.1% | 113% | 106% | 117% | 105% | 111% | 107% | 119% | 103% | 91%
C[S+](=O)([O-])c1ccc(-c2cnc(N)c(C(=O)Nc3ccccc3)n2)cc1 | 99.6% | 98.3% | 115% | 107% | 123% | 106% | 127% | 110% | 95.2% | 23.7% | 20.2% | 99.1% | 87.6% | 90.7% | 105% | 107% | 133% | 129% | 119% | 103% | 33.1% | 25.3% | 98.5% | 103% | 98.5% | 99.6% | 96.2% | 111% | 99.8% | 105% | 82.7% | 16% | 15.4%
COC1=CC=C(C=C1O)C/2=C/C(=O)C3=C(O2)C=C(O)C=C3O | 98% | 89.5% | 85.9% | 95.2% | 98.4% | 97.9% | 92.4% | 93.7% | 79.6% | 65.7% | 60.6% | 103% | 95.4% | 113% | 94.3% | 106% | 113% | 110% | 113% | 94.8% | 87.9% | 63.7% | 97.6% | 94.8% | 105% | 104% | 102% | 87.7% | 111% | 119% | 101% | 81.3% | 56.8%
CN1\C(=C(\O)C2=C(C=CC=C2)[S+]1([O-])=O)C(=O)NC3=CC=CC=N3 | 92.2% | 81.9% | 96.9% | 75% | 91.9% | 114% | 7.98% | 67.2% | 112% | 63.3% | 64.9% | 90% | 95% | 97.8% | 107% | 106% | 117% | 6.64% | 54.8% | 93.2% | 54.9% | 56.6% | 98.4% | 86.6% | 112% | 107% | 123% | 109% | 8.39% | 51.8% | 96.6% | 59.8% | 74.5%
O=C\1N(N\C=C1[N]2C=CN=N2)C3=NC=NC(=C3)N4CCOCC4 | 58.1% | 74.2% | 66.2% | 69.5% | 56% | 46.9% | 20.1% | 36.9% | 21.7% | 15.8% | 12.1% | 56.6% | 102% | 108% | 95.5% | 46.8% | 28.6% | 13.6% | 13.3% | 19.2% | 14.5% | 16.8% | 52.3% | 77.4% | 74.1% | 69.3% | 66.5% | 42.8% | 17.3% | 32.8% | 19.5% | 19.9% | 16.7%
COC/1=C/C=C2\C(=C/C1=O)[C@H](CCC3=CC(=C(OC)C(=C23)OC)OC)NC(C)=O | 32.1% | 25.8% | 26.1% | 23.7% | 18.7% | 14.5% | 11% | 11.5% | 10.1% | 10% | 3.47% | 19% | 19.2% | 15.9% | 15.9% | 12.3% | 8.3% | 5.66% | 6.98% | 5.01% | 4.81% | 2.96% | 20.9% | 20.5% | 21.6% | 21.8% | 10.7% | 8.08% | 7.02% | 5.24% | 4.72% | 4.63% | 2.48%
